Assays:
[1] = biological target: various β-lactamases (bacterial lysates) (Escherichia coli, UniProt Q53TY8); test: Inhibition of nitrocefin cleavage by bacterial lysates, Table 11; assay type: biochemical; conditions: lysate EC1010 pAmpC (CMY-6), read-out: NCF IC50 EC1010 pAmpC (CMY-6)
[2] = system: KP1008 Klebsiella pneumoniae KPC-2; test: Checkerboard assay, biapenem potentiation; conditions: Biapenem MIC 8-fold; KP1008 KPC-2 class A
[3] = system: AB1052 Acinetobacter baumannii OXA-24; test: Checkerboard assay, biapenem potentiation; conditions: Biapenem MIC 8-fold; AB1052 OXA-24 class D
[4] = biological target: KPC-3, lysate of EC1007 (Klebsiella pneumoniae, UniProt Q9F663, H272Y); test: Inhibition of ceftazidime hydrolysis by bacterial lysate
[5] = biological target: SHV-2, lysate of ec306 (Escherichia coli, UniProt P0A9Z7); test: as above
[6] = biological target: SHV-5, lysate of ec308 (Escherichia coli, UniProt P0AD63, E235K/G234S); test: as above
[7] = biological target: OXA-10, lysate of KP1007 (Pseudomonas aeruginosa, UniProt P14489); test: as above

Row | Compound | IC50 [1] | MPC8 [2] | MPC8 [3] | IC50 [4] | IC50 [5] | IC50 [6] | IC50 [7]
1 | O=C(O)CC1CC[C@H](NC(=O)C2CC2)B(O)O1 (stereo partly drawn) [Compound 4, 2-((3R)-3-(cyclopropanecarboxamido)-2-hydroxy-1,2-oxaborinan-6-yl)acetic acid] | > 8.3 µM | X (MPC8 of less than 0.16 μg/mL) | Z (MPC8 of greater than 1 μg/mL) | < 0.415 µM | > 4.15 µM | > 4.15 µM | > 4.15 µM
2 | Cl.N[C@H]1CCC(CC(=O)O)OB1O (stereo partly drawn) [Compound 7, 2-((3R)-3-amino-2-hydroxy-1,2-oxaborinan-6-yl)acetic acid hydrochloride] | – | – | – | > 4.77 µM | > 4.77 µM | > 4.77 µM | > 4.77 µM
3 | CC(=O)N[C@H]1CCC(CC(=O)O)OB1O (stereo partly drawn) [Compound 3, 2-((3R)-3-acetamido-2-hydroxy-1,2-oxaborinan-6-yl)acetic acid] | – | X (MPC8 of less than 0.16 μg/mL) | Z (MPC8 of greater than 1 μg/mL) | – | > 4.65 µM | > 4.65 µM | > 4.65 µM

From US11090319B2, “Therapeutic uses of pharmaceutical compositions comprising cyclic boronic acid ester derivatives” (Melinta Subsidiary Corp., priority 2010, dated 2021)
